Consider 1 molecule from US20250367162A1, “Additive for Food, Drink and Pharmaceutical Products to Improve Health and Well-Being” (RB2 Enterprises, LLC, priority 2021, published 2025).

One data set can be described thus: stability / shelf-life. It is filed as physicochemical.
The conditions of data set [1]: on its own; share of consumed Dihydromyricetin that enters a person's bloodstream; cited from earlier work.
Data set [2] in a line: bioavailability (share of consumed substance entering the bloodstream). It is filed as in vivo. Conditions: mixed with an effective amount of a hydrogenated substance such as Erythritol. The method, then:
For use as an additive 50 that accomplishes the various objectives and which provides the aspects of the present invention, the present inventor solved several problems with regard to use of Dihydromyricetin 14a. One such problem is that Dihydromyricetin 14a, on its own, has a solubility of approximately 0.2 mg per ml of fluid, which is very low. Because the solubility of Dihydromyricetin 14a is so low, it cannot be effectively utilized as a medicine or supplement, despite the well known benefits of this flavonoid 14 for people (as well as certain animals). Another issue with Dihydromyricetin 14a is that, on its own, it has a bioavailability of approximately four percent, meaning that only about four percent of consumed Dihydromyricetin 14a enters a person's bloodstream and stays long enough to be biologically effective for product user 56. […] Mixing an effective amount of one or more solvents 60, such as a bicarbonate substance 60a or an alcohol solvent 60b, increases the solubility of Dihydromyricetin 14a from approximately 0.2 mg per ml of fluid to approximately 114 mg per ml of fluid.

Consider `O=C1c2c(O)cc(O)cc2O[C@H](c2cc(O)c(O)c(O)c2)[C@H]1O` [Dihydromyricetin 14a, Dihydromyricetin], for which the “shelf-life of Dihydromyricetin” value in “stability / shelf-life” (mixed with an effective amount of Erythritol and/or other hydrogenated substances) is “extends the Dihydromyricetin 14a shelf-life”. Besides, the stability result in the data set “stability / shelf-life” (on its own, light sensitivity and other shelf-life limitations) was “poor stability”. In data set [1], the bioavailability entry is reported as “approximately four”. The “bioavailability of Dihydromyricetin” value in data set [2] was “greatly improves the bioavailability”.
